# System: patients with mCRPC
# Test: PROpel (NCT03732820) double-blind randomized phase III trial: efficacy and patient-reported outcomes
# Format: in vivo, human
# Source text: The primary objective was efficacy as assessed by investigator-assessed imaging-based progression-free survival.
# Patient population. Eligible patients were 18 years of age (or 19 years of age in South Korea) and had histologically or cytologically confirmed prostate adenocarcinoma with at least one documented metastatic lesion on either a bone scan, computed tomography, or magnetic resonance imaging scan. […] Docetaxel during neoadjuvant/adjuvant treatment for localized prostate cancer and the metastatic hormone-sensitive (mHSPC) stage of disease was permitted, as long as no signs of failure or disease progression occurred during or immediately after such treatment. Prior to mCRPC stage, treatment with second-generation antiandrogen agents (except abiraterone) without PSA progression/clinical progression/radiographic progression during treatment was allowed, provided the treatment was stopped at least 12 months before randomisation.
# Trial design and interventions. This was a double-blind, placebo-controlled, phase Ill trial. Eligible patients were randomized (1:1) to treatment with abiraterone acetate (1000 mg once daily) in combination with either olaparib (300 mg twice daily) or placebo. All patients received prednisone or prednisolone (5 mg twice daily) as per the abiraterone acetate label requirement. Randomization was stratified by distant metastasis type (bone only/visceral/other) at baseline and by docetaxel treatment at the mHSPC stage of disease (yes or no). Study treatment continued until objective imaging-based progressive disease assessed by investigator (using Response Evaluation Criteria in Solid Tumors [RECIST 1.1] for soft tissue lesions and Prostate Cancer Working Group-3 [PCWG-3] criteria for bone lesions), unacceptable toxicity, or withdrawal of consent. Following objective disease progression, further treatment options were at the discretion of the investigator. […] Crossover from placebo to receive olaparib in combination with abiraterone acetate was not allowed.
# Endpoints. The primary endpoint was imaging-based progression-free survival or death from any cause in the absence of disease progression. Sensitivity analysis by blinded independent central review and exploratory subgroup analysis of investigator-assessed imaging-based progression-free survival to assess consistency of treatment effect across potential prognostic factors were prespecified. Subgroups included HRRm status.
# A key secondary endpoint was overall survival. Other secondary endpoints included time to first subsequent therapy or death (TFST), time to second progression or death (PFS2) and patient-reported outcomes. Further exploratory endpoints were objective response rate (ORR), prostate-specific antigen (PSA) response rate and time to PSA progression.
# Statistical analysis. Efficacy was analyzed for the intention-to-treat population and safety was analyzed for all patients who received any amount of abiraterone acetate, olaparib, or placebo.
# The first planned interim analysis of the primary endpoint of imaging-based progression-free survival is reported in this example. Imaging-based progression-free survival will be reported subsequently at a second data cutoff. Overall survival will be formally tested at all points, including a third data cutoff.
# With a sample size of 796 patients, the first interim analysis was planned to occur when there had been approximately 379 progression or death events (47.6% maturity), to provide 94.1% power at a one-sided alpha of 0.014 to show a statistically significant difference in imaging-based progression-free survival between the trial arms, assuming a hazard ratio for progression or death of 0.68.
# A multiple testing procedure controlled the overall one-sided type 1 error rate of 2.5%.
# [1] = rPFS investigator assessment, FAS, All patients
# [2] = rPFS, subgroup Age at randomisation: <65 years
# [3] = rPFS, subgroup Age at randomisation: ≥65 years
# [4] = rPFS, subgroup Docetaxel treatment at mHSPC stage
# [5] = rPFS, subgroup HRRm Unknown, ctDNA test
# [6] = rPFS, subgroup HRRm Unknown, tumour tissue test
# [7] = rPFS, subgroup HRRm, ctDNA test (FoundationOne Liquid CDx)
# [8] = rPFS, subgroup HRRm, tumour tissue test (FoundationOne CDx)
# [9] = rPFS, subgroup No docetaxel treatment at mHSPC stage
# [10] = rPFS, subgroup Non-HRRm, ctDNA test
# [11] = rPFS, subgroup Non-HRRm, tumour tissue test
# [12] = rPFS, subgroup Site of distant metastases: Bone only
# [13] = rPFS, subgroup Site of distant metastases: Other
# [14] = rPFS, subgroup Site of distant metastases: Visceral
smiles,measurement,setting,value
"CC(=O)O[C@H]1CC[C@@]2(C)C(=CC[C@@H]3[C@@H]2CC[C@]2(C)C(c4cccnc4)=CC[C@@H]32)C1 [abiraterone acetate and placebo, (3β)-17-(3-pyridinyl) androsta-5,16-dien-3-yl acetate]",second progression or death events,"PFS2, number of events",94
same,patients who received a first subsequent therapy,"TFST, number of patients",221
same,Confirmed PSA response,"human, in vivo",69.2%
same,Median time to PSA progression,"human, in vivo",12.0 months
same,median imaging-based progression-free survival by investigator assessment,"intention-to-treat, first interim analysis, data cutoff Jul. 30, 2021",16.6 months
same,Median rPFS,"investigator assessment, FAS, All patients",16.59 months
same,"progression or death events, blinded independent central review",number of events,218
same,"progression or death events, investigator assessment",number of events,226
same,"ORR, number of patients with response",of 161 patients (olaparib arm) / of 160 patients (placebo arm) with measurable disease at baseline,77
same,deaths,"overall survival analysis, number of deaths",121
same,ORR,patients with measurable disease at baseline,48.1%
same,median imaging-based progression-free survival by blinded independent central review,prespecified sensitivity analysis,16.4 months
same,Number of events/total number of patients,[1],226/397
same,Number of events/total number of patients (%),[1],(56.9) %
same,Number of events/total number of patients,[2],59/97
same,Number of events/total number of patients (%),[2],(60.8) %
same,Number of events/total number of patients,[3],167/300
same,Number of events/total number of patients (%),[3],(55.7) %
same,Number of events/total number of patients,[4],56/94
same,Number of events/total number of patients (%),[4],(59.6) %
same,Number of events/total number of patients,[5],13/30
same,Number of events/total number of patients (%),[5],(43.3) %
same,Number of events/total number of patients,[6],76/131
same,Number of events/total number of patients (%),[6],(58.0) %
same,Number of events/total number of patients,[7],66/100
same,Number of events/total number of patients (%),[7],(66.0) %
same,Number of events/total number of patients,[8],37/56
same,Number of events/total number of patients (%),[8],(66.1) %
same,Number of events/total number of patients,[9],170/303
same,Number of events/total number of patients (%),[9],(56.1) %
same,Number of events/total number of patients,[10],147/267
same,Number of events/total number of patients (%),[10],(55.1) %
same,Number of events/total number of patients,[11],113/210
same,Number of events/total number of patients (%),[11],(53.8) %
same,Number of events/total number of patients,[12],102/217
same,Number of events/total number of patients (%),[12],(47.0) %
same,Number of events/total number of patients,[13],84/128
same,Number of events/total number of patients (%),[13],(65.6) %
same,Number of events/total number of patients,[14],40/52
same,Number of events/total number of patients (%),[14],(76.9) %
same,Median rPFS,subgroup Age at randomisation: <65 years,16.36 months
same,Median rPFS,subgroup Age at randomisation: ≥65 years,16.66 months
same,Median rPFS,subgroup Docetaxel treatment at mHSPC stage,13.83 months
same,Median rPFS,"subgroup HRRm Unknown, tumour tissue test",16.39 months
same,Median rPFS,"subgroup HRRm, ctDNA test (FoundationOne Liquid CDx)",13.63 months
same,Median rPFS,"subgroup HRRm, tumour tissue test (FoundationOne CDx)",16.62 months
same,Median rPFS,subgroup No docetaxel treatment at mHSPC stage,16.82 months
same,Median rPFS,"subgroup Non-HRRm, ctDNA test",18.96 months
same,Median rPFS,"subgroup Non-HRRm, tumour tissue test",16.59 months
same,Median rPFS,subgroup Site of distant metastases: Bone only,22.18 months
same,Median rPFS,subgroup Site of distant metastases: Other,13.70 months
same,Median rPFS,subgroup Site of distant metastases: Visceral,10.91 months

# — patent publication US20250134887A1, “METHODS OF TREATING PROSTATE CANCER” (AstraZeneca AB, priority 2022, published 2025)
